Assay results as given in the NIST ThermoML archive (doi:10.1021/je900414p).

Settings: Liquid

CCOS(=O)(=O)[O-].CCn1cc[n+](C)c1 [1-ethyl-3-methylimidazolium ethyl sulfate]
mass density [kg/m3]
Settings	100 kPa	2500 kPa	5000 kPa	10000 kPa	15000 kPa	20000 kPa	25000 kPa	30000 kPa	35000 kPa
283.15 K	1247.6	1248.59	1249.58	1251.56	1253.65	1255.44	1257.31	1259.18	1261.04
288.15 K	1244.17	1245.15	1246.17	1248.17	1250.14	1252.1	1254.03	1255.9	1257.77
293.15 K	1240.67	1241.7	1242.72	1244.75	1246.75	1248.72	1250.66	1252.56	1254.46
298.15 K	1237.33	1238.32	1239.36	1241.41	1243.42	1245.42	1247.38	1249.31	1251.22
303.15 K	1233.95	1234.96	1236.02	1238.1	1240.14	1242.15	1244.14	1246.11	1248.06
308.15 K	1230.49	1231.54	1232.6	1234.71	1236.78	1238.83	1240.83	1242.81	1244.76
313.15 K	1227.14	1228.21	1229.29	1231.41	1233.51	1235.57	1237.6	1239.6	1241.57
318.15 K	1223.86	1224.94	1226.03	1228.17	1230.31	1232.4	1234.44	1236.49	1238.47
323.15 K	1220.46	1221.54	1222.66	1224.85	1226.99	1229.11	1231.18	1233.23	1235.25
328.15 K	1217.07	1218.15	1219.31	1221.5	1223.69	1225.81	1227.93	1229.99	1232.04
333.15 K	1213.67	1214.63	1215.87	1218.14	1220.35	1222.53	1224.65	1226.74	1228.8
338.15 K	1210.4	1211.52	1212.68	1214.94	1217.17	1219.36	1221.51	1223.61	1225.71

CCO [ethanol]
mass density [kg/m3]
Settings	100 kPa	2500 kPa	5000 kPa	10000 kPa	15000 kPa	20000 kPa	25000 kPa	30000 kPa	35000 kPa
283.15 K	797.76	799.74	801.73	805.58	809.28	812.8	816.2	819.47	822.63
288.15 K	793.65	795.66	797.73	801.67	805.43	809.06	812.52	815.87	819.04
293.15 K	789.19	791.25	793.37	797.42	801.3	804.99	808.53	811.94	815.23
298.15 K	784.92	787.03	789.21	793.38	797.34	801.11	804.75	808.21	811.58
303.15 K	780.63	782.81	785.04	789.3	793.37	797.25	800.93	804.49	807.95
308.15 K	776.26	778.54	780.82	785.22	789.37	793.34	797.14	800.76	804.27
313.15 K	771.91	774.26	776.62	781.13	785.4	789.45	793.33	797.04	800.61
318.15 K	767.58	769.99	772.41	777.04	781.43	785.59	789.55	793.36	796.98
323.15 K	763.09	765.56	768.08	772.84	777.34	781.59	785.65	789.53	793.24
328.15 K	758.54	761.09	763.7	768.58	773.22	777.57	781.73	785.7	789.5
333.15 K	753.96	756.61	759.27	764.32	769.08	773.56	777.81	781.87	785.76
338.15 K	749.42	752.16	754.89	760.09	764.99	769.59	773.96	778.09	782.06
343.15 K	744.74	747.57	750.39	755.74	760.75	765.47	769.94	774.17	778.23
